Source: patent US5620864A, “Acceptor for fucosyl transferase” (Health Research, Inc., priority 1992, dated 1997)
Values joined by “and” are separate entries in the source; they are usually repeats but may differ in a detail not shown here. Equal values may be shown once.

Tested on: α1,3-L-fucosyltransferase of the soluble fraction of human ovarian tumor
Assay: Assay of α1,3-fucosyltransferase with synthetic acceptors, partially purified enzyme of ovarian tumor soluble fraction
Type: biochemical
Details: for [14C] Fucose Incorporated (CPM): acceptor 3.0 mM, 37° C. 18 h
Procedure: An incubation mixture contained 50 mM HEPES-NaOH, pH 7.5, 5 mM MnC12, 7 mM ATP, 3 mM NaN3, the acceptor 0.3 mM (for serum enzyme) or 3.0 mM (for tumor enzyme), 0.125 μCi of GDP-[U-^14 C] Fuc (Sp. Act. 216 mCi/mmol) and enzyme in a total volume of 0.10 ml; the control incubation mixture had everything except the acceptor. At the end of incubation at 37° C. for 18 h, the mixture was diluted with 1 ml water and passed through Dowex-1-C1 column (1 ml in a Pasteur pipet). The column was washed twice with 1 ml water; the breakthrough and wash, which contained the [^14 C] fucosylated neutral acceptor, were collected together in a scintillation vial and counted for radioactivity using the scintillation coctail 3a70 (Research Products International, Mount Prospects, Ill.) and Beckman LS9000. The Dowex column was then eluted successively with 3 ml each of 0.1M and 0.2M NaCl; these eluates which contained the [^14 C] fucosylated sulfated acceptors, were counted for radioactivity as before. Corrections were made by subtracting the radioactivity in the water and NaCl eluates of the control incubation mixture from the corresponding test fractions. The duplicate runs of samples gave almost identical values, the difference being <5%.
As shown in the scheme set forth in FIG. 2, the α-L-fucosidase-free extract of the tissue (40 g), after concentration by 80% (NH4)2 SO4 precipitation was fractionated on bovine IgG glycopep-Sepharose in batches of 25 ml. After washing the column with the equilibration buffer, the bound enzyme was eluted with 1 M NaCl in the same buffer. The protein positive fractions were pooled and processed as shown in the scheme 2.0 ml of the above preparation was loaded on a Sephacryl S-200 column (Superfine:2.6 cm×88.0 cm) equilibrated at 4° C. with 50 mM Tris-HC1, pH 7.0 containing 0.15M NaCl and 0.1% Triton X-100 and eluted with the same buffer. Fractions of 3.0 ml were collected. The fucosyltransferase activity was located in the effluent fractions, by assaying first every 5th fraction and then obtaining the activity profile by assaying the alternate fractions in that range, using 2'-fucosyl LacNAc as the acceptor. […] Its elution position, which is slightly later than BSA, run separately on the same column, indicates its molecular weight as <67,000 daltons. […] The enzyme has been purified 66 fold over the soluble extract with a recovery of 6.2%. The enzyme at this stage lost its activity either kept frozen at -20° C. or left at 4° C. for more than a week. However, the enzyme at the end of the previous step was fairly stable for at least two months at 4° C. So this preparation of enzyme was used in acceptor ability comparison studies.
When α1,3-fucosyltransferase activity of the partially purified enzyme preparation from the soluble portion of ovarian tumor was measured and compared with the activity of other acceptors, the following results were obtained. 2'-methyl LacNAc, LacNAc and Galβ1, 3GlcNAc were respectively 100.0%, 60.6% and 565.5% active, indicating the presence of both α1,3 and α1,4 fucosyltransferase activities in this preparation.

SMILES | Relative Percent (2'-methyl LacNAc = 100) | Relative Percent (2'-methyl LacNAc = 100, listed as 3'-Sulfo LacNAc) | Relative Percent (2'-methyl LacNAc = 100, listed as 3'-sulfo LacNAc) | [14C] Fucose Incorporated (CPM)
CC(=O)N[C@H]1C(O)O[C@H](CO)[C@@H](O[C@@H]2O[C@H](CO)[C@H](O)[C@H](OS(=O)(=O)O)[C@H]2O)[C@@H]1O (stereo partly drawn) [3'-Sulfo-LacNAc, SODIUM β-D-GALACTOPYRANOSYL 3-SULFATE-(1→4)-2-ACETAMIDO-2-DEOXY-D-GLUCOPYRANOSE] | 447.1% | 447% | 447% and 447.1% | 33049 CPM
CO[C@H]1[C@H](O[C@H]2[C@H](O)[C@@H](NC(C)=O)C(O)O[C@@H]2CO)O[C@H](CO)[C@H](O)[C@@H]1O (stereo partly drawn) [2'-methyl LacNAc] | 100% | – | – | 7392 CPM
